Test [1] relates to phosphorylation of the IRF-3 protein in MDA-MB-468 cells. Description: pIRF3 immunocytochemistry cell based assay. The settings on record: Homo sapiens. The method, boiled down:
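After 2 h stimulation with Poly(I:C) (10 ug/ml), following 1 h compound pre-treatment (10-point, 3-fold dilution, top 10 uM), MDA-MB-468 cells were fixed and stained with anti-pIRF3 antibody. pIRF3 fluorescence was normalized to PI staining or cell count on an Acumen cytometer. IC50 curves were derived from this.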

In another test the target is T1, TBK1 (Homo sapiens, UniProt Q9UHD2).
T1 sequence (Q9UHD2 1-729): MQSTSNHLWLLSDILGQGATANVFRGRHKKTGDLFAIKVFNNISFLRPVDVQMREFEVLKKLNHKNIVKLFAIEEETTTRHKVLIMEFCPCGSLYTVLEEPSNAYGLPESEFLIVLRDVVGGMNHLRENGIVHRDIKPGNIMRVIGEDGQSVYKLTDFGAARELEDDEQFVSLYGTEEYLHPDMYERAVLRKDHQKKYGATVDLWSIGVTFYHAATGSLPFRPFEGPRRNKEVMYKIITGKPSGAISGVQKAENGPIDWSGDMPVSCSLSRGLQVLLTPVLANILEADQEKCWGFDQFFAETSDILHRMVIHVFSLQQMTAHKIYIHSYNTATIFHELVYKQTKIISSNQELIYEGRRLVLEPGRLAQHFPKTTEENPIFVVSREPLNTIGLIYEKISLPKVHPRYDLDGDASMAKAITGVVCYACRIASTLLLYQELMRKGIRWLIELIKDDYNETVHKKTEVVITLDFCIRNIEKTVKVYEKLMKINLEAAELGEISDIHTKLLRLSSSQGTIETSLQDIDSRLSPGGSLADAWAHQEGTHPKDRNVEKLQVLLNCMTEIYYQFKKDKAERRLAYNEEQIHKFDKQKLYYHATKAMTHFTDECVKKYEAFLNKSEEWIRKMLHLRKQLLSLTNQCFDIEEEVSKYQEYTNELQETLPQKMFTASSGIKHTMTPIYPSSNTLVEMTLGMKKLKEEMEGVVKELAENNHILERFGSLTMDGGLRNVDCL
Description: TBK Biochemical Assay. The method, boiled down: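 Caliper LabChip mobility-shift readout of substrate and product after 90 min of TBK1 reaction at 25° C and stop-buffer addition. Compounds tested in 1:4 serial dilution over 10 points from 30 uM final at 1% DMSO; staurosporine 10 uM final defines full inhibition.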

For the next test, the target named is T2, IKKε (Homo sapiens, UniProt Q14164).
T2 sequence (Q14164 1-716): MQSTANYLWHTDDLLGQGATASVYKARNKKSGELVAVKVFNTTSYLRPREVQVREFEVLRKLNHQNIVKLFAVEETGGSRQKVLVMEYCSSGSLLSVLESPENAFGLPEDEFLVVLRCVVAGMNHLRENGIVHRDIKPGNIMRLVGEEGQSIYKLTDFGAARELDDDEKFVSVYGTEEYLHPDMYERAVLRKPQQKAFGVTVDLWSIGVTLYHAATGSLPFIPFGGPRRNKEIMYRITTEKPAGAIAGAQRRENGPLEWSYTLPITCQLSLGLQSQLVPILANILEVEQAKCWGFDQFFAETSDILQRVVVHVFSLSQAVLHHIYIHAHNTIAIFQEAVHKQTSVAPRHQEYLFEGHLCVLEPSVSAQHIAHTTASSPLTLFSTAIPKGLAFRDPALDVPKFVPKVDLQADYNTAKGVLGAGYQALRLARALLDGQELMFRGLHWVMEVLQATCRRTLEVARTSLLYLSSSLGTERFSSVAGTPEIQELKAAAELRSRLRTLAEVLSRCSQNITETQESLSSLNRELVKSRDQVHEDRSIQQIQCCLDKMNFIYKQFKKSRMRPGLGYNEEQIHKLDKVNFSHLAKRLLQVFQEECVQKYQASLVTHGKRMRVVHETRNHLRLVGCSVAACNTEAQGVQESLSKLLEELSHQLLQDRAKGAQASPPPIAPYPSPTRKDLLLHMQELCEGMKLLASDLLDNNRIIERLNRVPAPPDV
Description: IKKe Biochemical Assay. The method, boiled down:
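Activity was measured as mobility-shift separation of phosphorylated from unphosphorylated substrate on a LabChip EZ Reader. Compound was titrated from 30 uM final in 10 points, 1:4 steps, with 1% DMSO, and enzyme plus substrate reacted 90 min at 25° C before stop buffer. Control wells held 10 uM staurosporine.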

[2] abbreviates: MDA-MB-468 cells, Poly(I:C) stimulation, read-out: pIRF3 IC50.

The source of these data is patent US10428080B2, “TBK/IKK inhibitor compounds and uses thereof” (Merck Patent GmbH, priority 2015, dated 2019).

Structures can show the parent of a compound that is named as a salt. Where two headings read alike, the source gives them in different places.

One may read the IC50 as the midpoint of a concentration-inhibition curve. As to `COc1cc(C(=O)NN)ccc1-c1cc2nccc(-c3ccc(OC4CCOCC4)c(C#N)c3)c2o1` [Compound 110, 4-{7-[3-Cyano-4-(tetrahydro-pyran-4-yloxy)-phenyl]-furo[3,2-b]pyridin-2-yl}-3-methoxy-benzoic acid hydrazide], the half-inhibitory concentration (IC50) in test [1] (setting [2]) is 100 to 1000 nM; on TBK1 (read-out: TBK1 IC50), less than 100 nM; at IKKε (read-out: IKKε IC50) it was less than 100 nM.

`COc1cc(C(=O)NCC(O)CO)ccc1-c1cc2nccc(-c3ccc(NC4CCOCC4)c(C#N)c3)c2o1` (stereo not drawn) [Compound 111, 4-{7-[3-Cyano-4-(tetrahydro-pyran-4-ylamino)-phenyl]-furo[3,2-b]pyridin-2-yl}-N-(2,3-dihydroxy-propyl)-3-methoxy-benzamide]: the figures for the concentration for half-maximal inhibition (IC50) (in test [1] (setting [2]); on TBK1 (read-out: TBK1 IC50); on IKKε (read-out: IKKε IC50)) were 100 to 1000 nM, less than 100 nM and less than 100 nM, respectively.

For the molecule `COc1cc(C(=O)N(C)C)ccc1-c1cc2nccc(-c3ccc(OC4CCN(C(C)=O)CC4)c(C#N)c3)c2o1` [Compound 112, 4-{7-[4-(1-Acetyl-piperidin-4-yloxy)-3-cyano-phenyl]-furo[3,2-b]pyridin-2-yl}-3-methoxy-N,N-dimethyl-benzamide], the results for the half-inhibitory concentration (IC50) (in test [1] (setting [2]); on TBK1 (read-out: TBK1 IC50); at IKKε (read-out: IKKε IC50)) were 100 to 1000 nM, less than 100 nM and less than 100 nM, respectively.

As to `CC(C)N1CCN(C(=O)c2ccc(-c3cc4nccc(-c5ccc(OC6CCOCC6)c(C#N)c5)c4o3)cc2)CC1` [Compound 116, 5-{2-[4-(4-Isopropyl-piperazine-1-carbonyl)-phenyl]-furo[3,2-b]pyridin-7-yl}-2-(tetrahydro-pyran-4-yloxy)-benzonitrile], the 50% inhibitory concentration (IC50) is 100 to 1000 nM in test [1] (setting [2]), less than 100 nM on TBK1 (read-out: TBK1 IC50) and less than 100 nM on IKKε (read-out: IKKε IC50).

As for `COc1cc(C(=O)NC2CCOC2)ccc1-c1cc2nccc(-c3ccc(NC4CCOCC4)c(C#N)c3)c2o1` (stereo not drawn) [Compound 117, 4-{7-[3-Cyano-4-(tetrahydro-pyran-4-ylamino)-phenyl]-furo[3,2-b]pyridin-2-yl}-3-methoxy-N-(tetrahydro-furan-3-yl)-benzamide], the IC50 was 100 to 1000 nM in test [1] (setting [2]), less than 100 nM at TBK1 (read-out: TBK1 IC50) and less than 100 nM at IKKε (read-out: IKKε IC50).

Regarding `COc1cc(C(=O)NCCC2CCNCC2)ccc1-c1cc2nccc(-c3ccc(OC4CCOCC4)c(C#N)c3)c2o1` [Compound 118, 4-{7-[3-Cyano-4-(tetrahydro-pyran-4-yloxy)-phenyl]-furo[3,2-b]pyridin-2-yl}-3-methoxy-N-(2-piperidin-4-yl-ethyl)-benzamide hydrochloride], the IC50 was 100 to 1000 nM in test [1] (setting [2]), less than 100 nM at TBK1 (read-out: TBK1 IC50) and less than 100 nM on IKKε (read-out: IKKε IC50).

Take `COc1cc(C(=O)NC2CN3CCC2CC3)ccc1-c1cc2nccc(-c3ccc(NC4C5COCC54)c(C#N)c3)c2o1` (stereo not drawn) [Compound 119, N-(1-Aza-bicyclo[2.2.2]oct-3-yl)-4-{7-[3-cyano-4-(3-oxa-bicyclo[3.1.0]hex-6-ylamino)-phenyl]-furo[3,2-b]pyridin-2-yl}-3-methoxy-benzamide]: the IC50 in test [1] (MDA-MB-468, read-out: pIRF3 IC50) is less than 100 nM; against TBK1 (TBK1 IC50), less than 100 nM; at IKKε it was less than 100 nM.

With `CN(C)C(=O)c1ccc(-c2cc3nccc(-c4ccc(N5CC[C@@H](F)C5)c(C#N)c4)c3o2)cc1` [Compound 120, 4-{7-[3-Cyano-4-((R)-3-fluoro-pyrrolidin-1-yl)-phenyl]-furo[3,2-b]pyridin-2-yl}-N,N-dimethyl-benzamide], the IC50 in test [1] (setting [2]) is 100 to 1000 nM; at TBK1 (read-out: TBK1 IC50), less than 100 nM; on IKKε (read-out: IKKε IC50), less than 100 nM.

Consider `COc1cc(C(=O)NC2CC(O)C2)ccc1-c1cc2nccc(-c3ccc(NC4CCOCC4)c(C#N)c3)c2o1` (stereo not drawn) [Compound 122, 4-{7-[3-Cyano-4-(tetrahydro-pyran-4-ylamino)-phenyl]-furo[3,2-b]pyridin-2-yl}-N-(3-hydroxy-cyclobutyl)-3-methoxy-benzamide], for which the concentration for half-maximal inhibition (IC50) in test [1] (setting [2]) was 100 to 1000 nM; at TBK1 (read-out: TBK1 IC50) it was less than 100 nM; on IKKε (read-out: IKKε IC50), less than 100 nM.

As to `CN(C)C(=O)c1cccc(-c2cc3nccc(-c4ccc(OC5CCOCC5)c(C#N)c4)c3o2)c1` [Compound 123], the 50% inhibitory concentration (IC50) is 1000 to 5000 nM in test [1] (setting [2]), less than 100 nM on TBK1 (read-out: TBK1 IC50) and less than 100 nM on IKKε (read-out: IKKε IC50).
